Marks after values point to notes of the source that are not given here.
Legend:
[1] = biological target: T1, human FAAH (Homo sapiens, UniProt O00519); experiment: FAAH assay, human FAAH enzyme inactivation (kinact/Ki); assay type: biochemical; conditions: oleamide 50 μM, 30° C.; for hFAAH kinact/Ki: in vitro, pH 7.4; for kinact/KI: pH 7.4, in vitro, read-out: hFAAH kinact/Ki
T1 construct: made in house; host or cells: E. coli
T1 sequence (O00519 1-579): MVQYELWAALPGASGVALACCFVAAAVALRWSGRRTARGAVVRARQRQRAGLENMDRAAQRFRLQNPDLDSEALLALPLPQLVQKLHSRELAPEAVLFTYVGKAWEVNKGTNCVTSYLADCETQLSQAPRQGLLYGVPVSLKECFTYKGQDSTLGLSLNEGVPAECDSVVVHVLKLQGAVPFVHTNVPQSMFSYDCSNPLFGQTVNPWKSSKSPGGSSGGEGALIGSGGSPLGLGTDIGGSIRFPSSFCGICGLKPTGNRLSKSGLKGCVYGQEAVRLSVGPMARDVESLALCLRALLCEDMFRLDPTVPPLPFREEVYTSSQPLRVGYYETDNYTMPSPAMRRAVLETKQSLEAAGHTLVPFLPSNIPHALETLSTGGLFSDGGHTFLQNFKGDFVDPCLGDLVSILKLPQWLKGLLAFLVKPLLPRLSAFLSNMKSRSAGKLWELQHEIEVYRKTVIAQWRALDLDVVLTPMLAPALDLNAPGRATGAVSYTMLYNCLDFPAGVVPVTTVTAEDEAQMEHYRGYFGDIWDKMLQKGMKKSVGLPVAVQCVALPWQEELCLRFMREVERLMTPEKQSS
How it was run: (§1)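 Oleamide hydrolysis by 1-4 nM purified E. coli-expressed FAAH (substrate 50 μM = Km) coupled to GDH/NADH, pH 7.4 phosphate, 7.5% DMSO and EtOH, 30° C; A340 followed 90 min. kobs from mono-exponential fits; kinact/Ki from kobs-versus-concentration slope, multiplied by two.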

[2] = biological target: T2, rat FAAH (Rattus norvegicus, UniProt P97612); experiment: FAAH assay, rat FAAH enzyme inactivation (kinact/Ki); assay type: biochemical; conditions: oleamide 50 μM, 30° C.; for rFAAH kinact/Ki: in vitro, pH 7.4; for kinact/KI: pH 7.4, in vitro, read-out: rFAAH kinact/Ki
T2 construct: made in house; host or cells: E. coli
T2 sequence (P97612 1-579): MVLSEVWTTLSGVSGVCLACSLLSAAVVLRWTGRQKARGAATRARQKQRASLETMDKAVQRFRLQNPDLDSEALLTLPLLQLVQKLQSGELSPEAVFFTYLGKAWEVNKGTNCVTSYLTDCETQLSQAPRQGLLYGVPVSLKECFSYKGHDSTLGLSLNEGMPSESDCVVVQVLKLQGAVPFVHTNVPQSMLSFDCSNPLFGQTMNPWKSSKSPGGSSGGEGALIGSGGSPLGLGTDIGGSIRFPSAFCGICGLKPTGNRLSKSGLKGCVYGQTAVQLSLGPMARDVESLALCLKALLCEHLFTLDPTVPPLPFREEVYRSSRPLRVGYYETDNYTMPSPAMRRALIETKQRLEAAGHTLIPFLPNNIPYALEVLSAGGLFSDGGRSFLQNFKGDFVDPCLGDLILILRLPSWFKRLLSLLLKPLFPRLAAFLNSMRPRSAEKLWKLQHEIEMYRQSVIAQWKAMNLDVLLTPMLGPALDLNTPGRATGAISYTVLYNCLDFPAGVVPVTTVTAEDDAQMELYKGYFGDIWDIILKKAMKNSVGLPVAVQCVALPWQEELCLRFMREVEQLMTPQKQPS
How it was run: as §1

[3] = test system: Male Sprague-Dawley Rats; experiment: In vivo Complete Freund's Adjuvant (CFA) efficacy assay, inhibition of allodynia; set-up: species or system rat; key: (+) indicates the test compound was determined to be efficacious at 3 mpk, oral dosing; (−) indicates the test compound was determined to not be efficacious at 3 mpk, oral dosing; conditions: p < 0.05 vs vehicle group
Description: For additional information on the CFA efficacy assay, see Jayamanne et al., Brit. J. Pharmacol. 2006, 147, 281-288. Experiments were performed on adult Male Sprague-Dawley Rats (200 g-250 g). Inflammation was induced in the left hindpaw of the rat by an intra-plantar injection of 150 uL Complete Freund's Adjuvant (CFA) (SIGMA F5881). The CFA injection immediately induces local inflammation, paw swelling, and pain that persists for at least two weeks post-injection. Baseline paw withdrawal threshold (PWT) was measured to determine the percent inhibition of allodynia using a set of Von Frey Hairs on day 4 post injection as illustrated by the Dixon Up and Down Method (W. J. Dixon, Ann. Rev. Pharmacol. Toxicol. 1980, 20:441-462). […] Following Dose administration PWT threshold was evaluated again at four hours postdose. The Sprague-Dawley rats used in this assay were purchased from Harlan, 8520 Allison Pointe Blvd., Indianapolis, Ind., 46250, U.S.A. Sprague-Dawley rats are an outbred breed of albino rats first produced by the Sprague Dawley farms in Madison, Wis., U.S.A.
Percent Inhibition of Allodynia was determined by the formula: […]
ΔPWT measurements were averaged for each treatment group and statistical comparisons between groups were made using ANOVA and Dunnett's two-tailed test. […]

[4] = 3 mpk, oral dosing, PWT four hours postdose

hFAAH kinact/Ki [1] [M⁻¹ s⁻¹]	rFAAH kinact/Ki [2] [M⁻¹ s⁻¹]	kinact/KI [1] [M⁻¹ s⁻¹]	kinact/KI [2] [M⁻¹ s⁻¹]	Structure (SMILES)	CFA Efficacy [3, 4]	CFA Efficacy ([3]; 10 mpk, intraperitoneal dosing)
5600	1970	–	–	Cn1nnnc1NC(=O)N1CCC2(CC1)CC(c1cccc(Cl)c1)CO2 (single isomer, unassigned) [Example 79, 3-(3-chlorophenyl)-N-(1-methyl-1H-tetrazol-5-yl)-1-oxa-8-azaspiro[4.5]decane-8-carboxamide]	(+)	–
–	–	1920	3030	CCc1noc(NC(=O)N2CCC3(CC2)CC(c2ccc(Cl)c(Cl)c2)CO3)c1C (single isomer, unassigned) [Example 68, 3-(3,4-dichlorophenyl)-N-(3-ethyl-4-methylisoxazol-5-yl)-1-oxa-8-azaspiro[4.5]decane-8-carboxamide]	(+)	–
–	–	1610	2110	Cc1noc(NC(=O)N2CCC3(CC2)C[C@@H](c2cccc(-c4ccc(F)c(F)c4)c2)CO3)c1C [Example 57, (3S)-3-(3′,4′-difluorobiphenyl-3-yl)-N-(3,4-dimethylisoxazol-5-yl)-1-oxa-8-azaspiro[4.5]decane-8-carboxamide]	(+)	–
–	–	16700	17300	Cc1noc(NC(=O)N2CCC3(CC2)C[C@H](c2ccc(OCc4ccc(F)c(F)c4)cc2)CO3)c1C [Example 51, (3R)-3-{4-[(3,4-difluorobenzyl)oxy]phenyl}-N-(3,4-dimethylisoxazol-5-yl)-1-oxa-8-azaspiro[4.5]decane-8-carboxamide]	(+)	–
–	–	3130	879	Cc1noc(NC(=O)N2CCC3(CC2)C[C@H](c2cccc(-c4ccc(F)cc4)c2)CO3)c1C [Example 59, (3R)—N-(3,4-dimethylisoxazol-5-yl)-3-(4′-fluorobiphenyl-3-yl)-1-oxa-8-azaspiro[4.5]decane-8-carboxamide]	(+)	–
–	–	30800	22600	Cn1nnnc1NC(=O)N1CCC2(CC1)C[C@H](c1ccc(OCc3ccc(F)cc3)cc1)CO2 [Example 90, (3R)-3-{4-[(4-fluorobenzyl)oxy]phenyl}-N-(1-methyl-1H-tetrazol-5-yl)-1-oxa-8-azaspiro[4.5]decane-8-carboxamide]	(+)	–
3120	1150	–	–	Cc1noc(NC(=O)N2CCC3(CC2)CC(c2noc(-c4ccc(C(F)(F)F)cc4)n2)CO3)c1C (single isomer, unassigned) [Example 76, N-(3,4-dimethylisoxazol-5-yl)-3-{5-[4-(trifluoromethyl)phenyl]-1,2,4-oxadiazol-3-yl}-1-oxa-8-azaspiro[4.5]decane-8-carboxamide]	(+)	–
–	–	32600	25000	Cn1nnnc1NC(=O)N1CCC2(CC1)C[C@H](c1ccc(OCc3ccc(F)c(F)c3)cc1)CO2 [Example 88, (3R)-3-{4-[(3,4-difluorobenzyl)oxy]phenyl}-N-(1-methyl-1H-tetrazol-5-yl)-1-oxa-8-azaspiro[4.5]decane-8-carboxamide]	(+)	–
–	–	10100	6170	Cc1noc(NC(=O)N2CCC3(CC2)C[C@@H](c2ccc(OCc4ccc(F)c(F)c4)cc2)CO3)c1C [Example 52, (3S)-3-{4-[(3,4-difluorobenzyl)oxy]phenyl}-N-(3,4-dimethylisoxazol-5-yl)-1-oxa-8-azaspiro[4.5]decane-8-carboxamide]	(+)	–

Further lines, the compound ahead of its results:

Structure (SMILES)	hFAAH kinact/Ki [1] [M⁻¹ s⁻¹]	rFAAH kinact/Ki [2] [M⁻¹ s⁻¹]	kinact/KI [1] [M⁻¹ s⁻¹]	kinact/KI [2] [M⁻¹ s⁻¹]	CFA Efficacy [3, 4]	CFA Efficacy ([3]; 10 mpk, intraperitoneal dosing)
O=C(Nc1cccnn1)N1CCC2(CC1)C[C@H](c1cccc(Oc3ccc(Cl)cn3)c1)CO2 [Example 11, (3R)-3-{3-[(5-chloropyridin-2-yl)oxy]phenyl}-N-pyridazin-3-yl-1-oxa-8-azaspiro[4.5]decane-8-carboxamide]	–	–	2420	1020	(+)	–
Cc1noc(NC(=O)N2CCC3(CC2)CC(c2ccc(OCc4cccc(Cl)c4)c(Cl)c2)CO3)c1C (single isomer, unassigned) [Example 46, 3-{3-chloro-4-[(3-chlorobenzyl)oxy]phenyl}-N-(3,4-dimethylisoxazol-5-yl)-1-oxa-8-azaspiro[4.5]decane-8-carboxamide]	4490	6920	–	–	(+)	–
Cc1noc(NC(=O)N2CCC3(CC2)C[C@H](c2ccc(OCc4cccc(F)c4)cc2)CO3)c1C [Example 47, (3R)—N-(3,4-dimethylisoxazol-5-yl)-3-{4-[(3-fluorobenzyl)oxy]phenyl}-1-oxa-8-azaspiro[4.5]decane-8-carboxamide]	–	–	9350	6260	(+)	–
Cc1noc(NC(=O)N2CCC3(CC2)CC(c2cccc(Cl)c2)CO3)c1C (single isomer, unassigned) [Example 36, 3-(3-chlorophenyl)-N-(3,4-dimethylisoxazol-5-yl)-1-oxa-8-azaspiro[4.5]decane-8-carboxamide]	2590	3830	–	–	(+)	–
O=C(Nc1cccnc1)N1CCC2(CC1)C[C@@H](c1cccc(Oc3ccc(Br)cn3)c1)CO2 [Example 8]	–	–	1950	3520	(+)	–
O=C(Nc1cccnn1)N1CCC2(CC1)C[C@H](c1cccc(Oc3ccc(Br)cn3)c1)CO2 [Example 9, (3R)-3-{3-[(5-bromopyridin-2-yl)oxy]phenyl}-N-pyridazin-3-yl-1-oxa-8-azaspiro[4.5]decane-8-carboxamide]	–	–	4970	3340	(+)	–
Cc1noc(NC(=O)N2CCC3(CC2)C[C@@H](c2ccc(OCc4cccc(F)c4)cc2)CO3)c1C [Example 48, (3S)—N-(3,4-dimethylisoxazol-5-yl)-3-{4-[(3-fluorobenzyl)oxy]phenyl}-1-oxa-8-azaspiro[4.5]decane-8-carboxamide]	–	–	4470	2540	(+)	–
Cc1noc(NC(=O)N2CCC3(CC2)CC(c2ccc(Cl)c(Cl)c2)CO3)c1C (single isomer, unassigned) [Example 37, 3-(3,4-dichlorophenyl)-N-(3,4-dimethylisoxazol-5-yl)-1-oxa-8-azaspiro[4.5]decane-8-carboxamide]	4130	–	–	4540	(+)	–
O=C(Nc1cccnn1)N1CCC2(CC1)C[C@H](c1cccc(Oc3ccc(C(F)(F)F)cn3)c1)CO2 [Example 3, (3R)—N-pyridazin-3-yl-3-(3-{[5-(trifluoromethyl)pyridin-2-yl]oxy}phenyl)-1-oxa-8-azaspiro[4.5]decane-8-carboxamide]	–	–	3040	2240	–	(−)^c

Reference: patent US20110230493A1, “1-OXA-8-Azaspiro [4,5] Decabe-8-Carboxamide Compounds as FAAH Inhibitors” (Pfizer Inc., priority 2008, published 2011)
